Measured values taken from US20240000863A1, “Skin Probiotics” (The Regents of the University of California, priority 2021, published 2024).
Blank lines part the entries; values can stand above or below the molecule they belong to.

Legend:
KLK5 = target: T1, KLK5 (Homo sapiens, UniProt Q9Y337); test: KLK5 inhibition assay (Acetyl-YASR-paranitroanilide, absorbance 405 nm); type: biochemical; settings: over 30 minutes; leupeptin at 100 uM
T1 sequence (Q9Y337 23-293): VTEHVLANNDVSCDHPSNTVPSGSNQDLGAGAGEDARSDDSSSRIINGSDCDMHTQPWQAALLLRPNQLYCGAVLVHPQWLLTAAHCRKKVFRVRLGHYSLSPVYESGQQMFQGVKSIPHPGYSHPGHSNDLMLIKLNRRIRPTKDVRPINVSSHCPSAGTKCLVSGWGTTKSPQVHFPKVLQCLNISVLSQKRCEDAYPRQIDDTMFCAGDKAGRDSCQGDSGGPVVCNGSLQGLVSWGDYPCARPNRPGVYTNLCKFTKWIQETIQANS
Method: The KLK5 inhibition assay is the foremost method to determine inhibition of KLK5. In the assay, KLK5 is incubated with the substrate Acetyl-YASR-paranitroanilide Uninhibited, KLK5 cleaves the substrate Acetyl-YASR at the arginine position […], releasing para-nitroanilide, a chromophore with absorbance 405 nm, resulting in increased absorption at that wavelength. When inhibited, the substrate Acetyl-YASR-paranitroanilide remains intact, and there is no increase in absorption at 405 nm. As a positive control, we used the absence of any inhibitor and the addition of purified Red Fluorescent Protein (RFP). As negative controls, we used a substrate only addition (no KLK5 is added) as well as a 100 uM addition of purified leupeptin, which is known to inhibit KLK5 at high concentrations.

[1] = target: T2, KLK5 protein (kallikrein 5) (UniProt Q9Y337 67-293, limits assumed); test: cell-based or functional assay
T2 sequence (looked up): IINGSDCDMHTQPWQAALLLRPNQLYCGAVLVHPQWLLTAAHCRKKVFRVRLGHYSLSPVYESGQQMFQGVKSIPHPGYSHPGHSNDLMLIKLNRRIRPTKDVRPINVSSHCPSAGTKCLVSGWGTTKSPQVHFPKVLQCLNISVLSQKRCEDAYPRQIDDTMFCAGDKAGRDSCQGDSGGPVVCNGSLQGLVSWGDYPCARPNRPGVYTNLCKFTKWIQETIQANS

- change of absorbance at 405 nm (KLK5): very little increasing absorbance
Molecule: CC(=O)N[C@@H](CC(C)C)C(=O)N[C@@H](CC(C)C)C(=O)N[C@H](C=O)CCCNC(=N)N [leupeptin]

- KLK5 inhibition assay (cleavage of Acetyl-YASR-paranitroanilide, absorbance at 405 nm), IC50 [1]: 89 nM
B1: LEKTI-D6 protein (lymphoepithelial Kazal-Type-related protease inhibitor, domain 6), secreted by C. glutamicum and purified (other)
chain: MESGKATSYAELCNEYRKLVRNGKLACTRENDPIQGPDGKVHGNTCSMCEVFFQAEEEEKKKKEGESRNKR
